# From PubChem BioAssay AID2060610 (Molecular Pharmacology Branch, DTP, NCI, 2025)
# pIC50: −log10 of the molar value.
# Tested on: 616215-338-R-J1-PDC complex spheroids, viability % test/control
# Assay: Anticancer human tumor 616215-338-R-J1-PDC patient-derived colon adenocarcinoma cell line growth inhibition [CLK]
# Conditions: for pIC50: curve of first compound; for viability, T/C: stronger effect = lower value
# Outline: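 Patient-derived tumor cells grown as complex spheroids with HUVEC endothelial cells and mesenchymal stem cells, treated with drug combinations. Concentrations descend in half-log steps from near clinical Cmax, or from 10 microM if Cmax unknown.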
# [1] = second compound 0.0316 µM, first compound 0.0316 µM
# [2] = second compound 0.0316 µM, first compound 0.1 µM
# [3] = second compound 0.0316 µM, first compound 0.316 µM
# [4] = second compound 0.0316 µM, first compound 1 µM
# [5] = second compound 0.0316 µM, first compound 3.16 µM
# [6] = second compound 0.0316 µM, first compound 10 µM
# [7] = second compound 0.1 µM, first compound 0.0316 µM
# [8] = second compound 0.1 µM, first compound 0.1 µM
# [9] = second compound 0.1 µM, first compound 0.316 µM
# [10] = second compound 0.1 µM, first compound 1 µM
# [11] = second compound 0.1 µM, first compound 3.16 µM
# [12] = second compound 0.1 µM, first compound 10 µM
# [13] = second compound 0.316 µM, first compound 0.0316 µM
# [14] = second compound 0.316 µM, first compound 0.1 µM
# [15] = second compound 0.316 µM, first compound 0.316 µM
# [16] = second compound 0.316 µM, first compound 1 µM
# [17] = second compound 0.316 µM, first compound 3.16 µM
# [18] = second compound 0.316 µM, first compound 10 µM
# [19] = second compound 1 µM, first compound 0.0316 µM
# [20] = second compound 1 µM, first compound 0.1 µM
# [21] = second compound 1 µM, first compound 0.316 µM
# [22] = second compound 1 µM, first compound 1 µM
# [23] = second compound 1 µM, first compound 3.16 µM
# [24] = second compound 1 µM, first compound 10 µM
# [25] = second compound 3.16 µM, first compound 0.0316 µM
# [26] = second compound 3.16 µM, first compound 0.1 µM
# [27] = second compound 3.16 µM, first compound 0.316 µM
# [28] = second compound 3.16 µM, first compound 1 µM
# [29] = second compound 3.16 µM, first compound 3.16 µM
# [30] = second compound 3.16 µM, first compound 10 µM
# [31] = second compound 10 µM, first compound 0.0316 µM
# [32] = second compound 10 µM, first compound 0.1 µM
# [33] = second compound 10 µM, first compound 0.316 µM
# [34] = second compound 10 µM, first compound 1 µM
# [35] = second compound 10 µM, first compound 3.16 µM
# [36] = second compound 10 µM, first compound 10 µM
# 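Further: spheroids exposed to agents for 7 days.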
# 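Wherever viability, T/C is given: 100% = DMSO vehicle wells.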
compound,measurement,setting,value
C#Cc1c(F)ccc2cc(O)cc(-c3ncc4c(N5CC6CCC(C5)N6)nc(OCC56CCCN5CC(F)C6)nc4c3F)c12 (centres undefined) + CNC(=O)c1ccc(Nc2nc(OC3CCCC3)c3c(-c4ccc5nc(C)oc5c4)c[nH]c3n2)c(OC)c1,pIC50,second compound 0.0316 µM,< 5.00
same,pIC50,second compound 0.1 µM,6.63
same,pIC50,second compound 0.316 µM,> 7.50
same,pIC50,second compound 1 µM,> 7.50
same,pIC50,second compound 3.16 µM,> 7.50
same,pIC50,second compound 10 µM,> 7.50
same,"viability, T/C",[1],88.8%
same,"viability, T/C",[2],90.4%
same,"viability, T/C",[3],94.1%
same,"viability, T/C",[4],91.1%
same,"viability, T/C",[5],112%
same,"viability, T/C",[6],110%
same,"viability, T/C",[7],59.7%
same,"viability, T/C",[8],56.2%
same,"viability, T/C",[9],45.5%
same,"viability, T/C",[10],43%
same,"viability, T/C",[11],32.3%
same,"viability, T/C",[12],24.4%
same,"viability, T/C",[13],47.2%
same,"viability, T/C",[14],43.8%
same,"viability, T/C",[15],43.2%
same,"viability, T/C",[16],42.3%
same,"viability, T/C",[17],33%
same,"viability, T/C",[18],18.6%
same,"viability, T/C",[19],44.1%
same,"viability, T/C",[20],44.2%
same,"viability, T/C",[21],38.8%
same,"viability, T/C",[22],30.7%
same,"viability, T/C",[23],30.4%
same,"viability, T/C",[24],17.8%
same,"viability, T/C",[25],38.7%
same,"viability, T/C",[26],41.3%
same,"viability, T/C",[27],37.3%
same,"viability, T/C",[28],33.1%
same,"viability, T/C",[29],24.2%
same,"viability, T/C",[30],18.2%
same,"viability, T/C",[31],48.6%
same,"viability, T/C",[32],42.6%
same,"viability, T/C",[33],33.2%
same,"viability, T/C",[34],34.7%
same,"viability, T/C",[35],24.8%
same,"viability, T/C",[36],18.9%
C=C(F)C(=O)N1CCN(c2nc(OCC3CCCN3C)nc3c2CCN(c2cccc4cccc(Cl)c24)C3)CC1CC#N (centres undefined) + CNC(=O)c1ccc(Nc2nc(OC3CCCC3)c3c(-c4ccc5nc(C)oc5c4)c[nH]c3n2)c(OC)c1,pIC50,second compound 0.0316 µM,5.24
same,pIC50,second compound 0.1 µM,> 7.50
same,pIC50,second compound 0.316 µM,> 7.50
same,pIC50,second compound 1 µM,> 7.50
same,pIC50,second compound 3.16 µM,> 7.50
same,pIC50,second compound 10 µM,> 7.50
same,"viability, T/C",[1],95.2%
same,"viability, T/C",[2],96.9%
same,"viability, T/C",[3],90.9%
same,"viability, T/C",[4],104%
same,"viability, T/C",[5],106%
same,"viability, T/C",[6],5.6%
same,"viability, T/C",[7],46%
same,"viability, T/C",[8],38.4%
same,"viability, T/C",[9],47.9%
same,"viability, T/C",[10],46.2%
same,"viability, T/C",[11],44.9%
same,"viability, T/C",[12],1.3%
same,"viability, T/C",[13],48.4%
same,"viability, T/C",[14],45.2%
same,"viability, T/C",[15],46.6%
same,"viability, T/C",[16],40.4%
same,"viability, T/C",[17],42.1%
same,"viability, T/C",[18],1.18%
same,"viability, T/C",[19],49.8%
same,"viability, T/C",[20],50.5%
same,"viability, T/C",[21],47.5%
same,"viability, T/C",[22],42.1%
same,"viability, T/C",[23],30.7%
same,"viability, T/C",[24],0.72%
same,"viability, T/C",[25],42.7%
same,"viability, T/C",[26],49.1%
same,"viability, T/C",[27],41.2%
same,"viability, T/C",[28],31.5%
same,"viability, T/C",[29],20.8%
same,"viability, T/C",[30],0.22%
same,"viability, T/C",[31],45.3%
same,"viability, T/C",[32],43%
same,"viability, T/C",[33],42.8%
same,"viability, T/C",[34],33.2%
same,"viability, T/C",[35],16.4%
same,"viability, T/C",[36],0.29%
